The test system of the test is GAT-1 in patient astrocytes. Put plainly: 3H GABA uptake, patient iPSC derived astrocytes. The test is classed as cell-based, human. As to conditions: PBA 2 mM. How it is done:
Live images of human neural progenitor cells (NPCs), astrocytes and GABAergic inhibitory neurons differentiated from the human induced pluripotent stem cells (iPSCs) on the day of experiment. […] The DMSO treated corrected or patient cells was taken as 1. […] GABA flux was measured after 30 min transport at room temperature. The influx of GABA, expressed in pmol/μg protein/min, was averaged from duplicates for each condition and for each transfection. The average counting was DMSO treated condition taken as 1. In FIG. 5B, FIG. 5D and FIG. 5F, 966 stands for CI-966 (50 μM) and 711 stands for NNC-711 (35 μM) that was applied 30 min to the astrocytes transfected with the wildtype GAT-1^YFP before preincubation and removed during preincubation. In FIGS. 5B and D, ***p<0.001 vs. corrected DMSO treated. § § <0.01, § § § p<0.001 vs. patient DMSO treated. […] In FIGS. 5B-E, n=4-8 batches of cells. In FIG. 5F, n=4-5 different transfections). Unpaired t test was used for FIG. 5C and FIG. 5E. […] Values were expressed as mean±S.E.M.). […]
Briefly, cells were cultured in […] dishes for 3 days before the GABA uptake experiment in DMEM with 10% fetal bovine serum and 1% penicillin/streptomycin. […] Glacial acetic acid was added, and lysates were then determined on a liquid scintillator with QuantaSmart. […]

For `O=C(O)CCCc1ccccc1` [PBA, 4-phenylbutyric acid], for the setting “24 hrs”, the “GABA uptake normalized to its DMSO treated” value is given as 1.387±0.08. For the setting “24 hrs (57% with DMSO)”, the “GABA uptake of the patient cells as % of the corrected cells” value is recorded as 81%.

The record behind these values is patent US20260144769A1, “4-PHENYLBUTYRATE RESTORED GABA UPTAKE AND REDUCED SEIZURES IN SLC6A1 VARIANT-MEDIATED DISORDERS” (Vanderbilt University, priority 2022, published 2026).
